Reference: US20210308034A1, “PREBIOTIC COMPOSITIONS AND METHODS FOR MAINTAINING A HEALTHY SKIN MICROBIOTA” (KIMBERLY-CLARK WORLDWIDE, INC., priority 2018, published 2021)

What was measured:
Type in all cases: cell-based
[1] = system: Corynebacterium minutissimum (ATCC 23348); assay: Carbohydrate Screening Test Method (Biolog phenotype microarray), Bacteria Code A; settings: Pathogenic; carbon microarray plate, OD 600 nm, 36 hr, 33° C.; positive = more than 0.05 OD units above zero; blank cell = not utilized
From the text: (§1) After creating desired ratios of various commensal skin bacteria in a healthy skin microbiome, 188 different carbohydrate sources were screened as the next step in determining potential prospects for skin microbiota balancing agents. The screening process was set up to determine which carbohydrate sources promoted commensal and/or pathogenic bacteria as well as to obtain individual and combinations of carbohydrate sources that could serve as microbiota balancing agents that can support or maintain the healthy proportions of commensal skin bacteria of Corynebacterium, Staphylococcus, and Micrococcus. The screening was conducted utilizing Biolog phenotype microarray plates (Hayward, Calif.). Table 1 provides a coded list of the commensal and pathogenic skin bacteria that the carbohydrates were screened against.
(§2) Table 2 provides the results of screening various carbohydrate sources against the commensal and pathogenic bacteria codes listed in Table 1. The Bacteria Codes B, D, E, I, and J are commensal bacteria and are shaded in Table 2 for references purposes. The bacteria codes were each placed in a carbon microarray plate and screened through the Carbohydrate Screening Test Method, as described in the Test Methods section herein. If a particular bacteria code utilized a specific carbohydrate source as described in the Carbohydrate Screening Test Method, then the corresponding cell in Table 2 was marked with a Y (short for “Yes”). […] Many of the carbohydrate sources were utilized by both commensal and pathogenic bacteria, and as such, would not provide an advantage for selective growth of the commensal bacteria. However, some of the carbohydrate sources were only used by commensal bacteria and were identified for further testing as described herein.
(§3) The study employed 10 representative skin bacteria; Staphylococcus epidermidis ATCC 14990, Staphylococcus epidermidis M23864:W2, Staphylococcus aureus ATCC 6538, Staphylococcus aureus ATCC 25904 (Newman), Pseudomonas aeruginosa ATCC 9027, Micrococcus luteus ATCC […], Micrococcus luteus SK58, Klebsiella pneumoniae ATCC BAA-2146, Corynebacterium amycolatum SK46, and Corynebacterium minutissimum ATCC 23348. Cultures were started from freezer bead stocks by placing a single bead into 20 mL of tryptic soy broth (TSB) for all organisms except C. amycolatum SK46 and C. minutissimum ATCC 23348, which were placed into brain heart infusion (BHI) broth. Cultures were grown for about 24 hr at 37° C. except M. luteus ATCC 49732 and M. luteus SK58, which were grown at 30° C. A passage of the culture was made using a sterile swab and streaked onto two M9*2 agar plates to prepare the incubated culture for the phenotype microarray pate according to Table 4. Plates were incubated for about 24 hr at 37° C. except for M. luteus ATCC 49732 and M. luteus SK58, which were incubated at 30° C. for 24 hr.
(§4) All cultures were harvested and washed before inoculation into the carbon microarray plate (BiOLOG, Hayward Calif.), with Biolog Plates PM1 and PM2 each having a source definition of Carbon. The bacteria on the M9*2 agar was suspended via agitation with an inoculating loop in 1 mL of M9*1 media for collection in a 1.7 mL micro centrifuge tube, as noted in Table 4. The bacteria was suspended again in M9*1 media, agitated, and collected into the same 1.7 mL microcentrifuge tube used in the previous step. The tube was centrifuged for 5 minutes at 4,000×G, supernatant decanted, the pellet was resuspended in 1 mL of M9*1 media, and vortex. This washing process was repeated for a total of 4 times.
(§5) A tenfold dilution in M9*1 media was performed using 1 mL of the washed bacterial culture. Of the tenfold dilution 200 μL was placed in an untreated 96-well plate (Falcon, Pasadena Tx.) for an initial optical density (OD) reading at a wavelength of 600 nm. The OD was used to correlate to colony forming units (CFU) per milliliter by using linear regression lines for each organism. […]

[2] = system: Corynebacterium jeikum (ATCC 33033); assay: Carbohydrate Screening Test Method (Biolog phenotype microarray), Bacteria Code B; settings: Commensal; carbon microarray plate, OD 600 nm, 36 hr, 33° C.; positive = more than 0.05 OD units above zero; blank cell = not utilized
In short: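 Strain from M9*2 agar was suspended in M9*1 medium, washed and inoculated into Biolog PM1/PM2 carbon plates. Carbohydrate use was scored yes/no, and growth rate and maximum yield were derived with GrowthRates 2.1, with max yields used for commensal ratios.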

[3] = system: Klebsiella pneumoniae (ATCC BAA-2146); settings: Pathogenic; carbon microarray plate, OD 600 nm, 36 hr, 33° C.; positive = more than 0.05 OD units above zero; blank cell = not utilized
[4] = system: Micrococcus luteus (SK58); assay: Carbohydrate Screening Test Method (Biolog phenotype microarray), Bacteria Code E; settings: Commensal; carbon microarray plate, OD 600 nm, 36 hr, 33° C.; positive = more than 0.05 OD units above zero; blank cell = not utilized
In short: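 Each commensal strain grown in Biolog carbon phenotype microarray plates with single carbohydrate sources. Growth curves fitted with GrowthRates 2.1 to give growth rate and maximum yield. Max yields used to calculate predicted co-culture ratios between Corynebacterium, Staphylococcus and Micrococcus, compared with desired ratios of 1.3, 1.4 and 1.1.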

[5] = system: Pseudomonas aeruginosa (ATCC 9027); settings: Pathogenic; carbon microarray plate, OD 600 nm, 36 hr, 33° C.; positive = more than 0.05 OD units above zero; blank cell = not utilized
In short: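 Carbon-source utilisation screen on Biolog PM1/PM2 plates: strain grown in TSB then on M9*2 agar, each ~24 h at 37 °C, washed four times in M9*1 and diluted tenfold. OD600 correlated to CFU/mL; each carbohydrate scored Yes when utilised.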

[6] = system: Staphylococcus aureus (ATCC 6538); assay: Carbohydrate Screening Test Method (Biolog phenotype microarray), Bacteria Code G; settings: Pathogenic; carbon microarray plate, OD 600 nm, 36 hr, 33° C.; positive = more than 0.05 OD units above zero; blank cell = not utilized
From the text: as §1, §2, §3, §4, §5

[7] = system: Staphylococcus aureus (ATCC 25904) (Newman); assay: Carbohydrate Screening Test Method (Biolog phenotype microarray), Bacteria Code H; settings: Pathogenic; carbon microarray plate, OD 600 nm, 36 hr, 33° C.; positive = more than 0.05 OD units above zero; blank cell = not utilized
From the text: as §1, §2, §3, §4, §5

[8] = system: Staphylococcus epidermidis (ATCC 14990); assay: Carbohydrate Screening Test Method (Biolog phenotype microarray), Bacteria Code I; settings: Commensal; carbon microarray plate, OD 600 nm, 36 hr, 33° C.; positive = more than 0.05 OD units above zero; blank cell = not utilized
In short: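 Staphylococcus epidermidis ATCC 14990, a commensal skin bacterium, was grown from a freezer bead in 20 mL tryptic soy broth for about 24 hr at 37° C. It was then streaked onto M9*2 agar and incubated a further 24 hr at 37° C. Cells were harvested, resuspended in M9*1 media, centrifuged 5 minutes at 4,000×G and washed 4 times.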

[9] = system: Staphylococcus epidermidis (M23864:W2); assay: Carbohydrate Screening Test Method (Biolog phenotype microarray), Bacteria Code J; settings: Commensal; carbon microarray plate, OD 600 nm, 36 hr, 33° C.; positive = more than 0.05 OD units above zero; blank cell = not utilized

OC[C@H]1O[C@H](O)[C@H](O)[C@@H](O)[C@@H]1O [α-D-Glucose]
Y: Carbohydrate Screening Results, Bacteria Code A [1] | Carbohydrate Screening Results, Bacteria Code B [2] | Carbohydrate Screening Results, Bacteria Code C [3] | Carbohydrate Screening Results, Bacteria Code E [4] | Carbohydrate Screening Results, Bacteria Code F [5] | Carbohydrate Screening Results, Bacteria Code G [6] | Carbohydrate Screening Results, Bacteria Code H [7] | Carbohydrate Screening Results, Bacteria Code I [8] | Carbohydrate Screening Results, Bacteria Code J [9]
